Measured values published in patent publication US20110136766A1, “AURORA KINASE INHIBITORS” (Vitae Pharmaceuticals, Inc., priority 2008, published 2011).

Columns and labels:
HL-60 = assay: CellTiter-Glo cell viability assay, HL-60; format: cell-based; conditions: Homo sapiens, HL-60; Leukemia; 72 hrs; 50% growth inhibition relative to control; read-out: HL-60 IC50
Source text: (§1) The CellTiter-Glo® Luminescent Cell Viability Assay is a homogeneous method of determining the number of viable cells in culture based on quantitation of the ATP present, which signals the presence of metabolically active cells. The homogeneous assay procedure involves addition of a single reagent directly to cells cultured in serum-supplemented medium. The homogeneous format results in cell lysis and generation of a luminescent signal proportional to the amount of ATP present. The CellTiter-Glo® Assay relies on the properties of a proprietary thermostable luciferase (Ultra-Glo. Recombinant Luciferase), which generates a stable glow-type Luminescent signal. The half-life of the luminescent signal resulting from this reaction is greater than five hours. This extended half-life eliminates the need for reagent injectors and provides flexibility for continuous or batch-mode processing of multiple plates. The unique homogeneous format reduces pipetting errors that may be introduced during the multiple steps required by other ATP-measurement methods.
(§2) 96 Well cell culture plates were seeded with 10^3 mammalian cells (Colo205, HL-60, SW620, HCT116, MCF-7 and MV-411) in 100 μl culture medium. The cells were incubated overnight prior to initiating the assay. Control wells were prepared on a plate containing medium only to obtain a value for background luminescence.
(§3) Compounds to be tested were added to experimental wells and incubated for 72 hrs (Colo205, HL-60, MV-411), 168 hrs (HCT116, SW620) or 240 hrs (MCF-7). Wells were also set up to as vehicle controls with the addition of 0.1% DMSO. At the end of the incubation period, the plates were equilibrated to room temperature for approximately 30 minutes.
(§4) Lyophilized CellTiter-Glo® Substrate and the CellTiter-Glo® Buffer were warmed to room temperature. The CellTiter-Glo® Buffer was mixed with the CellTiter-Glo® Substrate to reconstitute the lyophilized enzyme/substrate mixture. This forms the CellTiter-Glo® Reagent. The contents were mixed by gently vortexing, swirling or by inverting the contents to obtain a homogeneous solution. 100 μl of CellTiter-Glo® Reagent was added to the cell culture medium present in each well. The contents were mixed for 2 minutes on an orbital shaker to induce cell lysis. The plates were allowed to incubate at room temperature for 10 minutes to stabilize luminescent signal. The contents of the 96 well cell culture plate were then transferred to a white 96 well Optiplate (Perkin Elmer). The luminescence was recorded on Wallac 1420 VICTOR^2 V Multilabel Platereader (An integration time of 0.25-1 second per well).
(§5) 10 mM DMSO stock Compounds were serially diluted threefold in DMSO. Subsequent dilutions made into cell culture media prior to addition to cells to maintain the DMSO concentration at or below 0.1% to avoid cell toxicity.
(§6) The IC50s in Table 2 are the concentration at which 50% growth inhibition relative to control occurs.

MV-411 = assay: CellTiter-Glo cell viability assay, MV-411; format: cell-based; conditions: Homo sapiens, MV4-11; Leukemia; 72 hrs; 50% growth inhibition relative to control; read-out: MV-411 IC50
Source text: as §1, §2, §3, §4, §5, §6

MCF-7 = assay: CellTiter-Glo cell viability assay, MCF-7; format: cell-based; conditions: Homo sapiens, MCF7; Breast Cancer; 240 hrs; 50% growth inhibition relative to control; read-out: MCF-7 IC50
Source text: as §1, §2, §3, §4, §5, §6

[1] = biological target: T1, full-length human Aurora A (Homo sapiens, UniProt O14965); assay: Aurora A phosphocellulose filter binding kinase activity assay; format: biochemical; conditions: 11 nM Aurora A, 10 μM ATP, 50 μM Kemptide, 45 min; read-out: Aur-A IC50
T1 construct: The full-length human Aurora A carrying His6 tag at the N-terminus; His6 (N); purchased Invitrogen, Carlsbad, Calif
T1 sequence (O14965 1-403): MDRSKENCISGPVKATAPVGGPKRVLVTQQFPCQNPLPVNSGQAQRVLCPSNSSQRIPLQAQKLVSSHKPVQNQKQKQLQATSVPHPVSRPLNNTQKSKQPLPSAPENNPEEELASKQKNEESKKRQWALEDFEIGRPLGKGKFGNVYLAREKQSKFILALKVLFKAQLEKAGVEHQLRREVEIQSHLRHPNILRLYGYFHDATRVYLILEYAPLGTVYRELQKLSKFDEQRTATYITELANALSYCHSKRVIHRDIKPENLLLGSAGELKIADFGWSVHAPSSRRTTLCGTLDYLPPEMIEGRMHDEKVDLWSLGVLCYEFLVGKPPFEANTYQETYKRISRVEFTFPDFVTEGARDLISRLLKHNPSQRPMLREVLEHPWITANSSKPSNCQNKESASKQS
Method: (§7) Kinase activity of Aurora kinases was measured by phosphocellulose filter binding assay. The full-length human Aurora A carrying His6 tag at the N-terminus (Invitrogen, Carlsbad, Calif.) and the full-length human Aurora B (N-terminal GST fusion) co-expressed and co-purified with the His6-INCENP INBOX, aminoacids 803-918 (Carna BioSciences, Japan) were used as the enzyme in the assays. Tested compounds were diluted in DMSO and pre-incubated with the enzyme and ATP/Mg^2+ mixture for at least 10 minutes. The reaction was started by addition of the Kemptide peptide substrate (LRRASLG) and allowed to proceed for 45 min at room temperature. Each reaction in a final volume of 40 μl contained 50 μM Kemptide, 10 μM [γ-^33P]ATP (1 Ci/mmol) and either 11 nM Aurora A or 1.5 nM Aurora B/INCENP complex in the buffer containing 10 mM MgCl2, 5% DMSO, 20 mM MOPS, pH 7.2, 25 mM β-glycerol phosphate, 5 mM EGTA, 1 mM Na3VO4 and either 0.1 mg/ml of BSA and 1 mM DTT for Aurora A or 0.01% Triton-X100 and 2 mM DTT for Aurora B. The reaction was stopped with 25 μl of 5% H3PO4, and 45 μl of the mixture was transferred into a MultiScreen-PH filterplate (Millipore) pre-washed with 0.85% H3PO4. The filterplate was washed 4 times with 200 μl of 0.85% H3PO4 on a vacuum manifold. Scintillation fluid (50 μl of Ultima Gold™ LLT, PerkinElmer, Waltham, Mass.) was added to each well, and after 1-hr incubation at room temperature the plates were counted on MicroBeta (PerkinElmer, Waltham, Mass.) plate reader. […] Percent inhibition values were calculated based on the counts of the positive and negative controls, and these values were regressed against inhibitor concentration and fit into a four parameter model. From this fit the IC50 values (the inhibitor concentration at which 50% inhibition occurs) were derived as the inflection point on the semi-logarithm inhibition curve.

HCT116 = assay: CellTiter-Glo cell viability assay, HCT116; format: cell-based; conditions: Homo sapiens, HCT-116; Colorectal cancer; 168 hrs; 50% growth inhibition relative to control; read-out: HCT116 IC50
Source text: as §1, §2, §3, §4, §5, §6

SW620 = assay: CellTiter-Glo cell viability assay, SW620; format: cell-based; conditions: Homo sapiens, SW-620; Colorectal cancer; 168 hrs; 50% growth inhibition relative to control; read-out: SW620 IC50
Source text: as §1, §2, §3, §4, §5, §6

[2] = biological target: T2, full-length human Aurora B/INCENP complex (Homo sapiens, UniProt Q96GD4); assay: Aurora B phosphocellulose filter binding kinase activity assay; format: biochemical; conditions: 1.5 nM Aurora B/INCENP complex, 10 μM ATP, 50 μM Kemptide, 45 min; read-out: Aur-B IC50
T2 construct: the full-length human Aurora B (N-terminal GST fusion); GST (N); purchased Carna BioSciences, Japan
Method: as §7

Colo205 = assay: CellTiter-Glo cell viability assay, Colo205; format: cell-based; conditions: Homo sapiens, COLO 205; Colorectal cancer; 72 hrs; 50% growth inhibition relative to control; read-out: Colo205 IC50
Source text: as §1, §2, §3, §4, §5, §6

T2 sequence (Q96GD4 whole entry, the tested form may be a part): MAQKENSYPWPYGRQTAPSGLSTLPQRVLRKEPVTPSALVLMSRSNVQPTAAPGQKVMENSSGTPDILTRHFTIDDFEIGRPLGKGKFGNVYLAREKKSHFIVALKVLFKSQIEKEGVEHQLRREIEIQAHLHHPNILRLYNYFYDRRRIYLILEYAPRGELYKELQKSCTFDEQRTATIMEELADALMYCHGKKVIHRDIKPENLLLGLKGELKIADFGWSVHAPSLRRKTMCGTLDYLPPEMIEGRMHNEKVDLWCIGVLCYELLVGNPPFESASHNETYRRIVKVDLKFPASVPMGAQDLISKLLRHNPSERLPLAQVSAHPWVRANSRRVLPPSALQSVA
T2 sequence (Q9NQS7 803-918 partner limits assumed): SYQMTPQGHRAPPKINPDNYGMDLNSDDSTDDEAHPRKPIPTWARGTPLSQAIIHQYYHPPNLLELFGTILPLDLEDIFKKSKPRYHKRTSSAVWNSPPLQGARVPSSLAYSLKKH

Row | Compound | IC50 (HL-60) [nM] | IC50 (MV-411) [nM] | IC50 (MCF-7) [nM] | IC50 [1] [nM] | IC50 (HCT116) [nM] | IC50 (SW620) [nM] | IC50 [2] [nM] | IC50 (Colo205) [nM]
1 | O=C(Cc1cc(Nc2ncnc3cc(-c4ccc(C(=O)N5CCN(CCO)CC5)cc4)ccc23)n[nH]1)Nc1cccc(F)c1 [Compound 1, N-(3-fluorophenyl)-2-(3-(7-(4-(4-(2-hydroxyethyl)piperazine-1-carbonyl)phenyl)quinazolin-4-ylamino)-1H-pyrazol-5-yl)acetamide] | 1.32 | 5.75 | 16.9 | 1.93 | 5.32 | 12 | 0.48 | 1.82
2 | CN1CCN(C(=O)c2ccc(-c3ccc4c(Nc5cc(CC(=O)Nc6cccc(F)c6)[nH]n5)ncnc4c3)cc2)CC1 [Compound 2, N-(3-fluorophenyl)-2-(3-(7-(4-(4-methylpiperazine-1-carbonyl)phenyl)quinazolin-4-ylamino)-1H-pyrazol-5-yl)acetamide] | 1.8 | 5.2 | 8.46 | 5.07 | 3.65 | 6.3 | 0.86 | 3.98
3 | O=C(Cc1cc(Nc2ncnc3cc(-c4ccc(S(=O)(=O)N5CCCC5)cc4)ccc23)n[nH]1)Nc1cccc(F)c1 [Compound 3, N-(3-fluorophenyl)-2-(3-(7-(4-(pyrrolidin-1-ylsulfonyl)phenyl)quinazolin-4-ylamino)-1H-pyrazol-5-yl)acetamide] | 1.08 | 5.9 | 5.62 | 6.04 | 4.58 | 2.15 | 0.47 | 2.26
4 | O=C(Cc1cc(Nc2ncnc3cc(-c4ccc(C(=O)N5CCNCC5)cc4)ccc23)n[nH]1)Nc1cccc(F)c1 [Compound 4, N-(3-fluorophenyl)-2-(3-(7-(4-(piperazine-1-carbonyl)phenyl)quinazolin-4-ylamino)-1H-pyrazol-5-yl)acetamide] | 1.32 | 6.05 | 7.7 | 3.77 | 5.66 | 7.81 | 0.71 | 2.11
5 | O=C(Cc1cc(Nc2ncnc3cc(-c4ccc(S(=O)(=O)N5CC[C@H](F)C5)cc4)ccc23)n[nH]1)Nc1cccc(F)c1 [Compound 5, (S)-N-(3-fluorophenyl)-2-(3-(7-(4-(3-fluoropyrrolidin-1-ylsulfonyl)phenyl)quinazolin-4-ylamino)-1H-pyrazol-5-yl)acetamide] | 1.21 | 6.4 | 11.4 | 7.1 | 1.9 | 2.17 | 0.56 | 3.86
6 | O=C(Cc1cc(Nc2ncnc3cc(-c4ccc(S(=O)(=O)N5CC[C@@H](F)C5)cc4)ccc23)n[nH]1)Nc1cccc(F)c1 [Compound 6, (R)-N-(3-fluorophenyl)-2-(3-(7-(4-(3-fluoropyrrolidin-1-ylsulfonyl)phenyl)quinazolin-4-ylamino)-1H-pyrazol-5-yl)acetamide] | 2.26 | 5.79 | 7.8 | 6.29 | 1.9 | 2.4 | 0.63 | 3.9
